In publication PMC8419995, “In vitro and in vivo efficacy of thiacloprid against Echinococcus multilocularis” (Parasites & Vectors, 2021):

Tests used:
[1] = system: E. multilocularis germinal cells; assay: CellTiter-Glo viability assay on germinal cells; assay type: cell-based, Echinococcus multilocularis; details: 5 days
Procedure: To evaluate the activity of thiacloprid against parasitic stem cells, germinal cells from in vitro metacestode vesicles were investigated as described by Spiliotis et al.. Briefly, 20 units of cells were distributed into a black 384-well plate. Different concentrations of thiacloprid or PZQ (0, 0.06, 1.2, 2.5, 5, 10, 20, 40, 80 and 160 μM) were added to the cells. After culture at 37 °C for 5 days under a humid nitrogen atmosphere, 25 μl CellTiter-Glo containing 1% Triton X-100 was added. The plates were incubated at room temperature in the dark for 15 min. After the total destruction of the cellular aggregates, luminescence was measured using an Infinite M200 PRO reader (Tecan), and 0 μM values were set to 100% viability. The IC50 values were calculated using an online IC50 calculator after logit-log transformation. Four independent replicates were conducted.

[2] = system: collagen I and III, MMP1, MMP3, MMP9, MMP13; assay: Collagen and MMP expression in the host-lesion microenvironment (TEM, Sirius red, qPCR, western blot); assay type: in vivo; details: infected BALB/c mice, 6 weeks oral treatment
Procedure: The metacestodes were fixed with 4% paraformaldehyde and embedded in paraffin to make sections with a thickness of […]. The sections were dewaxed with water, stained with Picrosirius red for 10 min, rinsed and dehydrated with anhydrous ethanol, and sealed with neutral balsam after the xylene was transparent. Each section of 400× visual field image was randomly collected. The ratio of the area of all images collected to the area of the visual field was measured using the ImageJ analysis system, and the percentage of collagen fibre was calculated.
The variations in the microstructure of the protoscoleces or metacestodes were observed under an electron microscope. […] They were washed twice in PBS and then fixed for 3 h with 2.5% glutaraldehyde (pH = 7.2); next, they underwent 2 h post-fixation in 2% OsO4 (SPI-CHEM, West Chester, PA, USA). Subsequently, the samples were washed in double-distilled water and treated with 1% uranyl acetate for 25 min. After the samples were washed again in double-distilled water, dehydration was conducted in ethanol at continuous gradients (30–50–70–80–90–95–100%) over a period of 10 min. For SEM analysis, the dehydrated samples were dipped into hexamethyldisiloxane and then air-dried in a fume hood. The sample was observed under a Hitachi SU8100 scanning electron microscope (Tokyo, Japan) after gold spraying. For TEM analysis, the dehydrated samples passed through a dehydrating agent, and an epoxy resin (SPI-CHEM) permeated and polymerized at 60 °C overnight. A 50-nm ultra-thin section was prepared and then loaded on a 300-mesh copper grid. It was stained with uranyl acetate and lead citrate (SPI-CHEM). The sample was observed under a Hitachi HT7700 transmission electron microscope. To reduce the bias, electron microscopy was observed by professionals in the case of an unknown group.
Total RNA was extracted with TRIzol Reagent (Thermo Fisher Scientific, Waltham, MA, USA) according to the manufacturer’s instructions. The purity and concentrations of RNA were quantified using NanoDrop 2000 absorbance measurements at 260/280 nm. Total RNA was converted into cDNA sequences using the FastKing gDNA Dispelling RT SuperMix Kit (TIANGEN Biotech), and RT-qPCR was performed using the RealUniversal Color PreMix Kit (TIANGEN Biotech) on an ABI QuantStudio 5 system (Applied Biosystems, Waltham, MA, USA). The specific primers are shown in Additional file 4: Table S1. The PCR cycling conditions were as follows: pre-denaturation at 95 °C for 15 min followed by 40 cycles at 95 °C for 10 s and 60 °C for 34 s. The relative mRNA expression levels were quantified using the 2^−ΔΔCT method. RPS18 served as an internal control.
A total protein extraction kit (Solarbio) was used to extract cell or tissue total protein. The protein concentration was determined by the protein quantitative assay kit (Thermo Fisher Scientific). Then, electrophoresis was performed with 20–50 μg of protein sample. The protein was separated by sodium dodecyl sulfate polyacrylamide gel electrophoresis (SDS-PAGE) and transferred to a 0.22 μm PVDF membrane (Merck Millipore, Darmstadt, Germany). The PVDF membrane was blocked with 5% of nonfat powdered milk in Tris-buffered saline Tween 20 (TBST) for 1 h at room temperature. The membrane incubation with primary antibodies was performed at 4 °C overnight. The antibody information is listed in Additional file 5: Table S2. The membrane was washed with TBST and incubated with HRP-labeled secondary antibodies (1:5000, Abclonal, Wuhan, China) for 1 h at room temperature. Blotted membranes were visualized using enhanced chemiluminescence reagents (Thermo Fisher Scientific). Protein expression was depicted as the intensity of each protein relative to that of β-actin using ImageJ software.

[3] = system: E. multilocularis metacestodes; assay: Morphology of in vitro treated metacestode vesicles (light microscope, SEM, TEM); assay type: cell-based, Echinococcus multilocularis; details: 5 μM, 5 days
Procedure: The variations in the microstructure of the protoscoleces or metacestodes were observed under an electron microscope. In vitro-cultured E. multilocularis protoscoleces and metacestodes were treated with thiacloprid at 0 and 5 μM for 5 days at 37 °C and 5% CO2. They were washed twice in PBS and then fixed for 3 h with 2.5% glutaraldehyde (pH = 7.2); next, they underwent 2 h post-fixation in 2% OsO4 (SPI-CHEM, West Chester, PA, USA). Subsequently, the samples were washed in double-distilled water and treated with 1% uranyl acetate for 25 min. After the samples were washed again in double-distilled water, dehydration was conducted in ethanol at continuous gradients (30–50–70–80–90–95–100%) over a period of 10 min. For SEM analysis, the dehydrated samples were dipped into hexamethyldisiloxane and then air-dried in a fume hood. The sample was observed under a Hitachi SU8100 scanning electron microscope (Tokyo, Japan) after gold spraying. For TEM analysis, the dehydrated samples passed through a dehydrating agent, and an epoxy resin (SPI-CHEM) permeated and polymerized at 60 °C overnight. A 50-nm ultra-thin section was prepared and then loaded on a 300-mesh copper grid. It was stained with uranyl acetate and lead citrate (SPI-CHEM). The sample was observed under a Hitachi HT7700 transmission electron microscope. […]

[4] = set-up: method as in PMID 32229153; details: mice; cited from earlier work
[5] = set-up: method as in PMID 21786385; details: cited from earlier work

N#C/N=C1\SCCN1Cc1ccc(Cl)nc1 [thiacloprid]
viability at 2.5 µM ([1]; Echinococcus multilocularis, 120 h, 2.5 μM, read-out: Cell viability rate of germinal cells): 58.3 ± 6.09% | viability at 5 µM ([1]; Echinococcus multilocularis, 120 h, 5 μM, read-out: Cell viability rate of germinal cells): 38.3 ± 4.47% | IC50 ([1]; Echinococcus multilocularis, 120 h, CellTiter-Glo, read-out: IC50 against germinal cells): 2.89 ± 0.34 µM | Inhibition rate of germinal cell viability ([1]; more than 10 μM): more than 80% | Collagen fiber deposition in the host-lesion microenvironment (TEM) [2]: can promote | mRNA expression of MMP1, MMP3, MMP9 and MMP13 in the microenvironment ([2]; qPCR): significantly inhibited | mRNA and protein expression levels of collagen I and III in the host-lesion microenvironment ([2]; qPCR, western blot): increased | Protein expression levels of MMP1, MMP3, MMP9 and MMP13 ([2]; western blot): decreased | Morphological alterations of metacestode vesicles under a light microscope [3]: contraction and collapse | TEM of metacestode vesicles [3]: obvious ultrastructural damage | Dose that induced obvious hepatocellular hypertrophy and cytoplasm degeneration [4]: more than 108 mg/kg | Dose that can cause hepatocellular necrosis and hydropic degeneration [5]: 22.5 mg/kg
